ChEMBL document CHEMBL6087460, “Generating a Peptide Library Using the Repeats of Amino Acid Scaffolds Created by Sliding the Framework of a 7-mer Human Chemerin Segment and Discovery of Potent Antibacterial and Antimycobacterial Peptides” (J Med Chem, 2025)
Calls of active or inactive are those of the source. The calls are words filed in the database; no cut-off is given here.

Assays:
[1] = Retention time of compound by RP-HPLC method; assay type: physicochemical
Escherichia coli [2] = assay: Antibacterial activity against Escherichia coli ATCC 25922 incubated for 16 to 18 hrs by broth dilution assay; assay type: functional; details: time 16-18 hrs
Klebsiella pneumoniae = assay: Antibacterial activity against Klebsiella pneumoniae ATCC 27736 incubated for 16 to 18 hrs by broth dilution assay; assay type: functional; details: time 16-18 hrs
Pseudomonas aeruginosa = assay: Antibacterial activity against Pseudomonas aeruginosa ATCC BAA-427 incubated for 16 to 18 hrs by broth dilution assay; assay type: functional; details: time 16-18 hrs
Staphylococcus aureus [3] = assay: Antibacterial activity against Staphylococcus aureus ATCC 25923 incubated for 16 to 18 hrs by broth dilution assay; assay type: functional; details: time 16-18 hrs
Bacillus subtilis = assay: Antibacterial activity against Bacillus subtilis 6633 incubated for 16 to 18 hrs by broth dilution assay; assay type: functional; details: time 16-18 hrs
Staphylococcus aureus [4] = assay: Antibacterial activity against methicillin-resistant Staphylococcus aureus 33591 incubated for 16 to 18 hrs by broth dilution assay; assay type: functional; details: time 16-18 hrs
Staphylococcus aureus [5] = assay: Antibacterial activity against methicillin-resistant Staphylococcus aureus BAA-44 incubated for 16 to 18 hrs by broth dilution assay; assay type: functional; details: time 16-18 hrs
[6] = Hemolytic activity in human RBC measured after 40 mins by absorbance based assay; assay type: toxicity, cell-based, Erythrocyte; details: human red blood cells
Escherichia coli [7] = assay: Bactericidal activity against Escherichia coli ATCC 25922 incubated for 16 to 18 hrs; assay type: functional; details: time 16-18 hrs
Escherichia coli [8] = assay: Antibacterial activity against Escherichia coli ATCC 25922 incubated for 16 to 18 hrs in presence of 10 percent human serum by broth dilution assay; assay type: functional; details: time 16-18 hrs
Staphylococcus aureus [9] = assay: Bactericidal activity against Staphylococcus aureus ATCC 25923 incubated for 16 to 18 hrs; assay type: functional; details: time 16-18 hrs
Staphylococcus aureus [10] = assay: Antibacterial activity against Staphylococcus aureus ATCC 25923 incubated for 16 to 18 hrs in presence of 10 percent human serum by broth dilution assay; assay type: functional; details: time 16-18 hrs
[11] = Cytotoxicity against mouse 3T3-L1 cells assessed as cell viability at 100 uM incubated for 24 hrs by MTT assay relative to control; assay type: toxicity, cell-based; details: 3T3-L1 cells, read-out: Activity
[12] = Cytotoxicity against rat L6 cells assessed as cell viability at 100 uM incubated for 24 hrs by MTT assay relative to control; assay type: toxicity, cell-based; details: L6 cells, read-out: Activity
Escherichia coli [13] = assay: Bactericidal activity against Escherichia coli ATCC 25922 at MIC incubated for about 100 mins by time kill assay relative to control; assay type: functional; details: 1.667 h
Staphylococcus aureus [14] = assay: Bactericidal activity against Staphylococcus aureus ATCC 25923 at MIC incubated for about 135 mins by time kill assay relative to control; assay type: functional; details: 2.25 h
Escherichia coli [15] = assay: Induction of membrane depolarization in Escherichia coli ATCC 25922 by diSC3-5 dye based analysis; assay type: functional, organism-based
Staphylococcus aureus [16] = assay: Induction of membrane depolarization in Staphylococcus aureus ATCC 25923 by diSC3-5 dye based analysis; assay type: functional, organism-based
Escherichia coli [17] = assay: Disruption of plasma membrane integrity in Escherichia coli ATCC 25922 by SYTOX-Green uptake assay; assay type: functional, organism-based
Staphylococcus aureus [18] = assay: Disruption of plasma membrane integrity in Staphylococcus aureus ATCC 25923 by SYTOX-Green uptake assay; assay type: functional, organism-based
Escherichia coli [19] = assay: Disruption of membrane integrity in Escherichia coli ATCC 25922 by PI staining based analysis; assay type: functional, organism-based
Staphylococcus aureus [20] = assay: Disruption of membrane integrity in Staphylococcus aureus ATCC 25923 by PI staining based analysis; assay type: functional, organism-based
[21] = Hemolytic activity in human RBC assessed as disruption of membrane integrity by Alexa Fluor-Annexin V staining based analysis; assay type: toxicity, cell-based; details: erythrocyte
Escherichia coli [22] = assay: Induction of cell membrane damage in Escherichia coli ATCC 25922 at 3 times MIC incubated for 60 mins by SEM analysis; assay type: functional, organism-based
Staphylococcus aureus [23] = assay: Induction of cell membrane damage in Staphylococcus aureus ATCC 25923 at 3 times MIC incubated for 60 mins by SEM analysis; assay type: functional, organism-based
[24] = system: Mycolicibacterium smegmatis; assay: Antitubercular activity against Mycobacterium smegmatis incubated for 24 hrs by rezasurin dye based assay; assay type: functional
Escherichia coli [25] = assay: Bactericidal activity against Escherichia coli ATCC 25922 at MIC incubated for 45 mins by time kill assay; assay type: functional, organism-based
Staphylococcus aureus [26] = assay: Bactericidal activity against Staphylococcus aureus ATCC 25923 at MIC incubated for 45 mins by time kill assay; assay type: functional, organism-based
Escherichia coli [27] = assay: Bactericidal activity against Escherichia coli ATCC 25922 at MIC incubated for 30 mins by time kill assay; assay type: functional, organism-based
Staphylococcus aureus [28] = assay: Bactericidal activity against Staphylococcus aureus ATCC 25923 at MIC incubated for 30 mins by time kill assay; assay type: functional, organism-based
Escherichia coli [29] = assay: Induction of resistance development in Escherichia coli ATCC 25922 assessed as fold increase in MIC at sub-MIC measured after 30 passages relative to control; assay type: functional
Staphylococcus aureus [30] = assay: Induction of resistance development in Staphylococcus aureus ATCC 25923 assessed as fold increase in MIC at sub-MIC measured after 30 passages relative to control; assay type: functional
Staphylococcus aureus [31] = assay: Induction of resistance development in methicillin-resistant Staphylococcus aureus 33591 assessed as fold increase in MIC at sub-MIC measured after 30 passages relative to control; assay type: functional
Staphylococcus aureus [32] = assay: Induction of resistance development in methicillin-resistant Staphylococcus aureus BAA-44 assessed as fold increase in MIC at sub-MIC measured after 30 passages relative to control; assay type: functional
[33] = Stability in 10 percent human serum assessed as compound remaining measured after 60 mins by RP-HPLC analysis; assay type: ADME, cell-free; details: 10% human serum, read-out: Stability
[34] = Toxicity in BALB/c mouse assessed as animal survival at 15 mg/kg, iv administered thrice at 2 hrs interval measured after 7 days; assay type: organism-based; details: in vivo, 168 h, time 7 day
[35] = Toxicity in BALB/c mouse assessed as change in AST level at 15 mg/kg, iv administered thrice at 2 hrs interval measured after 7 days; assay type: organism-based; details: in vivo, 168 h, time 7 day
[36] = Toxicity in BALB/c mouse assessed as change in ALT level at 15 mg/kg, iv administered thrice at 2 hrs interval measured after 7 days; assay type: organism-based; details: in vivo, 168 h, time 7 day
[37] = Toxicity in BALB/c mouse infected with Escherichia coli ATCC 25922 assessed as animal survival at 5 mg/kg, iv administered thrice at 1,3 and 5 hrs post-infection measured after 7 days; assay type: organism-based; details: in vivo, 168 h, time 7 day
[38] = Toxicity in BALB/c mouse infected with Escherichia coli ATCC 25922 assessed as animal survival at 2.5 mg/kg, iv administered thrice at 1,3 and 5 hrs post-infection measured after 7 days; assay type: organism-based; details: in vivo, 168 h, time 7 day
Escherichia coli [39] = assay: Antibacterial activity against Escherichia coli ATCC 25922 infected in BALB/c mouse assessed as bacterial load in blood at 5 mg/kg, iv administered thrice at 1,3 and 5 hrs post-infection measured after 24 hrs post-last dose (Rvb ~ 4 x10^6 CFU/mL); assay type: functional; details: time 29 hrs
Escherichia coli [40] = assay: Antibacterial activity against Escherichia coli ATCC 25922 infected in BALB/c mouse assessed as bacterial count in liver at 5 mg/kg, iv administered thrice at 1,3 and 5 hrs post-infection measured after 24 hrs post-last dose (Rvb ~ 2.3 x10^7 CFU/mL); assay type: functional; details: time 29 hrs
Escherichia coli [41] = assay: Antibacterial activity against Escherichia coli ATCC 25922 infected in BALB/c mouse assessed as bacterial count in spleen at 5 mg/kg, iv administered thrice at 1,3 and 5 hrs post-infection measured after 24 hrs post-last dose (Rvb ~ 1.9 x10^7 CFU/mL); assay type: functional; details: time 29 hrs
Escherichia coli [42] = assay: Antibacterial activity against Escherichia coli ATCC 25922 infected in BALB/c mouse assessed as bacterial count in kidney at 5 mg/kg, iv administered thrice at 1,3 and 5 hrs post-infection measured after 24 hrs post-last dose (Rvb ~ 1.8 x10^7 CFU/mL); assay type: functional; details: time 29 hrs
Escherichia coli [43] = assay: Antibacterial activity against Escherichia coli ATCC 25922 infected in BALB/c mouse assessed as bacterial count in blood at 5 mg/kg, iv administered thrice at 1,3 and 5 hrs post-infection measured after 24 hrs post-last dose (Rvb ~ 9.6 x10^6 CFU/mL); assay type: functional; details: time 29 hrs
[44] = system: Mycolicibacterium smegmatis; assay: Antimycobacterial activity against Mycobacterium smegmatis assessed as reduction in bacterial growth at 2 times MIC pretreated for 1 hr followed by compound removal and subsequent culturing in fresh media without compound for 24 hrs measured after 4 days; assay type: functional, organism-based
[45] = system: Mycolicibacterium smegmatis; assay: Disruption of cell membrane integrity in Mycobacterium smegmatis incubated for 2 hrs by EtBr uptake assay; assay type: functional, organism-based
[46] = Toxicity in mouse assessed as animal survival at 15 mg/kg, iv administered each day for 5 days measured after 7 days post-last dose; assay type: organism-based; details: in vivo, 120 h, time 5 day
[47] = Toxicity in mouse assessed as change in serum AST level at 15 mg/kg, iv administered each day for 5 days measured after 7 days post-last dose; assay type: organism-based; details: in vivo, 120 h, time 5 day
[48] = Toxicity in mouse assessed as change in serum ALT level at 15 mg/kg, iv administered each day for 5 days measured after 7 days post-last dose; assay type: organism-based; details: in vivo, 120 h, time 5 day
[49] = Toxicity in BALB/c mouse infected with Mycobacterium bovis BCG assessed as animal survival at 2.5 to 5 mg/kg, iv administered once a day for 2 weeks; assay type: organism-based; details: in vivo, 336 h, dose 2.5-5 mg/kg

Substance H-GRLGRLGRLGRLGRL-OH has a Retention_time [1] of 16.17 min, an MIC (Escherichia coli [2]) of 3.8 µM and an MIC (Klebsiella pneumoniae) of 60.6 µM. It also gave an MIC (Pseudomonas aeruginosa) of 15.2 µM, an MIC (Staphylococcus aureus [3]) of 3.8 µM and an MIC (Bacillus subtilis) of 15.2 µM. For the same substance, the MIC (Staphylococcus aureus [4]) was 15.2 µM, the MIC (Staphylococcus aureus [5]) was 15.2 µM and the HC50 at 40 min [6] was 2 mM. For the same substance, the MBC (Escherichia coli [7]) was 15.2 µM, the MIC (Escherichia coli [8]) was 15.2 µM and the MBC (Staphylococcus aureus [9]) was 7.6 µM. For the same substance, the MIC (Staphylococcus aureus [10]) was 15.2 µM, the viability at 24 h, 100 µM [11] was > 80% and the viability at 24 h, 100 µM [12] was > 80%. The Activity (Escherichia coli [13]) was 100%, the Activity (Staphylococcus aureus [14]) was 100% and the Activity (Escherichia coli [15]) was “inactive”. The Activity (Staphylococcus aureus [16]) was “inactive”, the Activity (Escherichia coli [17]) was “inactive” and the Activity (Staphylococcus aureus [18]) was “inactive”. The Activity (Escherichia coli [19]) was “inactive”, the Activity (Staphylococcus aureus [20]) was “inactive” and the Activity [21] was “Non-toxic”. For the same substance, the Activity (Escherichia coli [22]) was “inactive”, the Activity (Staphylococcus aureus [23]) was “inactive” and the MIC [24] was 5 µM.
H-GRLVGRLVGRLVGRLV-OH gave a Retention_time [1] of 20.24 min, an MIC (Escherichia coli [2]) of 1.8 µM and an MIC (Klebsiella pneumoniae) of 3.6 µM. For the same substance, the MIC (Pseudomonas aeruginosa) was 7.3 µM, the MIC (Staphylococcus aureus [3]) was 1.8 µM and the MIC (Bacillus subtilis) was 1.8 µM. It also gave an MIC (Staphylococcus aureus [4]) of 1.8 µM, an MIC (Staphylococcus aureus [5]) of 3.6 µM and an HC50 at 40 min [6] of 2 mM. For the same substance, the MBC (Escherichia coli [7]) was 1.8 µM, the MIC (Escherichia coli [8]) was 1.8 µM and the MBC (Staphylococcus aureus [9]) was 1.8 µM. It also gave an MIC (Staphylococcus aureus [10]) of 1.8 µM, a viability at 24 h, 100 µM [11] of 75% and a viability at 24 h, 100 µM [12] of 75%. For the same substance, the Activity (Escherichia coli [25]) was “Active”, the Activity (Staphylococcus aureus [26]) was “Active” and the Activity (Escherichia coli [27]) was “Active; Emerged As Swiftest Molecule”. For the same substance, the Activity (Staphylococcus aureus [28]) was “Active; Emerged As Swiftest Molecule”, the “fold change (FC)” value (Escherichia coli [29]) was 2 and the “fold change (FC)” value (Staphylococcus aureus [30]) was 2. The “fold change (FC)” value (Staphylococcus aureus [31]) was 2, the “fold change (FC)” value (Staphylococcus aureus [32]) was 2 and the Activity (Escherichia coli [15]) was “Active”. The Activity (Staphylococcus aureus [16]) was “Active”, the Activity (Escherichia coli [17]) was “Active” and the Activity (Staphylococcus aureus [18]) was “Active”. The Activity (Escherichia coli [19]) was “Active”, the Activity (Staphylococcus aureus [20]) was “Active” and the Activity [21] was “Non-toxic”. For the same substance, the Activity (Escherichia coli [22]) was “Active”, the Activity (Staphylococcus aureus [23]) was “Active” and the remaining at 1 h [33] was ~80%. The Activity [34] was “Non-toxic”, the Activity [35] was “Non-toxic” and the Activity [36] was “Non-toxic”. The Survival [37] was 100%, the Survival [38] was 60% and the Activity (Escherichia coli [39]) was ~800 CFU/ml. For the same substance, the Activity (Escherichia coli [40]) was 1864 CFU/ml, the Activity (Escherichia coli [41]) was 1652 CFU/ml and the Activity (Escherichia coli [42]) was 2908 CFU/ml. The Activity (Escherichia coli [43]) was 1020 CFU/ml, the MIC [24] was 2.5 µM and the Activity [44] was “Active”. For the same substance, the Activity [45] was “inactive”, the Activity [46] was “Non-toxic” and the Activity [47] was “Non-toxic”. The Activity [48] was “Non-toxic” and the Activity [49] was “Non-toxic”.
